Row | SMILES | melting point
1 | CC(C)c1cc2cc(OCC(=O)O)c(Cl)c(Cl)c2s1 | 168 to 170 °C
2 | C=CCSc1c(O)cc(C)oc1=O | 98 to 98.5 °C
3 | CCc1cc(C(C)O)nn1-c1ccc([N+](=O)[O-])cc1 (centres undefined) | 127 to 128 °C
4 | CC(=O)CC(=O)CCCCCCCC(=O)CC(C)=O | 73 to 74 °C
5 | O=S1Cc2ccccc2-c2ccccc21 (centres undefined) | 97 to 100 °C
6 | O=c1[nH]c2c(c3nc(-c4ccccc4F)nn13)CCCCC2 | 257 to 259 °C
7 | N#CCCCNC(=O)c1nn(C2CCCCO2)cc1NC(=O)c1ccccn1 (centres undefined) | 155 to 157 °C
8 | CCCCCCCCCCOc1cc(OCCCCCCc2cccc(OCc3ccccc3)c2OCc2ccccc2)cc(C(=O)OC)c1 | 45 to 46 °C
9 | CCCCCCCCCCCCCCC1C(=O)OC2OC3(C)CCC4C(C)CCC1C24OO3 (single isomer, unassigned; (+)) | 65 to 66 °C
10 | C=C1c2cc(F)ccc2OC12CCN(C(C)=O)CC2 | 114 to 116 °C
11 | CCOC(=O)c1ccc(OCCC2CCN(c3ccc(F)nn3)CC2)cc1 | 132 °C
12 | CCN1C(=O)C(C)(C)C(=O)N(C)c2cc(CN(CCc3cccnc3)S(=O)(=O)c3ccccc3)ccc21 | 143 to 146 °C
13 | CCCCCCc1ccc(-n2c(-c3ccc(Br)cc3)ccc2-c2ccc(Br)cc2)cc1 | 198 to 199 °C
14 | CC(=O)N(C)N(C(=O)OC(C)(C)C)c1ccc(CC#N)cc1 | 74 to 75 °C
15 | N#CC(C#N)=C1N(CCCN2CCCCC2)CCCN1CCCN1CCCCC1 | 88 to 90 °C
16 | CN1CCN(Cc2ccc(C(=O)O)cc2)CC1 | 310 to 312 °C
17 | COC(=O)c1ccc2c(=O)n(CC(C)C)c(CNC(=O)OC(C)(C)C)c(-c3ccc(C)cc3)c2c1 | 193 to 194 °C
18 | NC(=O)[C@H](CO)Nc1nc(SCc2cccc(F)c2F)nc2nc(N)sc12 | 145 to 151 °C

Row | SMILES | melting point
19 | CCOC(=O)C1=C(C)NC(=S)N(C(=O)OC(C)C)C1c1cccc(Cl)c1Cl (centres undefined) | 157 to 159 °C
20 | CCCCCCCCCCCCCCCCCCCCSCCCO | 58 to 60 °C
21 | COc1cc2c(cc1S(=O)(=O)c1cccs1)[C@@H](N1CCCC1=O)[C@H](O)C(C)(C)O2 (relative stereo) | 135 to 136 °C
22 | CSc1n[nH]c(NC(=O)c2ccccc2O)n1 | 306 to 309 °C
23 | COC(=O)c1ccccc1CS(=O)(=O)N=c1nc2nc(OC)cc(OC)n2s1 | 153 to 154 °C
24 | O=C(c1ccc([N+](=O)[O-])cc1)N1Cc2cccn2Cc2ccccc21 | 188 to 190 °C
25 | COc1ccc(Cl)c(Oc2c(C)nc(N3CCOCC3)nc2O)c1 | 252 °C
26 | OCc1nc(/C=C/c2ccccc2)ns1 | 119 to 120 °C
27 | CCOC(=O)C(NS(=O)(=O)c1ccc(C)cc1)C1CCOC1 (centres undefined) | 104 to 105 °C
28 | COc1cc(-n2c(I)nnc2I)ccc1C | 176 °C
29 | C=CCOC(=O)C=CC(=O)NC(N)=O | 108 to 110 °C
30 | COc1ccc(C(=O)N2c3ccccc3C(n3c4ccccc4c4ccccc43)CC2CCCCC(=O)O)cc1OC (centres undefined) | 226 to 228 °C
31 | COc1ccc(C2=NN(C3CCN(C(=O)c4cccnc4)CC3)C(=O)CC2)cc1OC | 162 to 164 °C
32 | Cc1cc(C2=NOC(c3cc(Cl)cc(Cl)c3)(C(F)(F)F)C2)ccc1C(=O)Nc1ncccn1 (centres undefined) | 122 to 124 °C
33 | Nc1ccc2c(c1)C(=O)N(CCO)CO2 | 94 to 96 °C
34 | CC(C)(Sc1cc(C(C)(C)C)c(O)c(C(C)(C)C)c1)Sc1cc(C(C)(C)C)c(OCCC[C@H](O)CO)c(C(C)(C)C)c1 | 68 to 71 °C
35 | O=C1c2cc(Cl)ccc2CC1Br (centres undefined) | 84 to 87 °C

Next, values leading:

Row | melting point | SMILES
36 | 89 to 90 °C | CCCc1nccn1-c1nc(-c2ccc(Cl)cc2)c(CCCOc2ccccc2OC)o1
37 | 123 to 124 °C | COC(=O)C(O)c1ccccc1Nc1c(Cl)cccc1Cl (centres undefined)
38 | 135 to 138 °C | CCN(CC)CCOc1ccc(CNC(=O)C#Cc2ccc(C)cc2Cl)cc1
39 | 130 °C | COCCC(=O)OC[C@@H](O)[C@@H]1CC(c2ccc(-c3ccc(N4C[C@H](Cn5ccnn5)OC4=O)cc3F)cn2)=NO1
40 | 206 °C | Nc1nc2c(N)cc(OC(F)(F)F)cc2s1
41 | 184 to 185 °C | COc1cc(COc2nn(-c3ccccc3)cc2/C=C/C#N)ccc1OCc1nc(-c2ccccc2)oc1C
42 | 250 to 251 °C | Nc1ncc(C#Cc2ccc(Cl)cc2)c(Oc2ccc(O)cc2)n1
43 | 92 to 95 °C | Cc1[nH]nc(Oc2ccc(C(F)(F)F)cc2[N+](=O)[O-])c1C
44 | > 280 °C | O=C(c1cc2c(cn1)[nH]c1ccccc12)n1ccnc1
45 | 50 to 52 °C | C=CCOc1cccc(C(=O)c2ccccc2C(=O)OC)c1
46 | 262 to 264 °C | CC(C)c1ccc(-c2nccc(-c3ccc(C(=O)O)cc3)n2)cc1
47 | 86.3 °C | Cn1c(NC2CCNC(Cc3ccccc3)C2)nc2ccccc21 (centres undefined)
48 | 107 °C | CCCOc1ccc(OC)c(-c2csc(NC(=O)c3ccc(OCC(OCC)OCC)cc3)n2)c1
49 | 195 to 196 °C | COc1ccc2c(c1OC)Oc1cccc3cncc-2c13
50 | 219 to 222 °C | Cc1cccc(Nc2cc(Nc3ccc(OCCN(C)C)cc3)ncn2)c1
51 | 266 to 271 °C | CCNC(=O)c1ccc(N2CCN(Cc3cnc4c(c3)[nH]c(=O)n3cccc43)CC2)c(Cl)c1
52 | 165 to 167 °C | COc1ccccc1-c1cn(-c2ccccc2)nc1O

Row | melting point | SMILES
53 | 80 to 82 °C | ClCCc1nc2c(ccc3ccccc32)o1
54 | 95 °C | N#C[C@H](O)c1cccc(Oc2ccccc2)n1
55 | 110 °C | O=c1[nH]c2c(O)cccc2n1CCN1CCN(c2cccc(C(F)(F)F)c2)CC1
56 | 184 to 186 °C | CCOC(=O)N1CCN(C(=O)Cn2c(-c3ccc(Cl)cc3)nc3cccnc32)CC1
57 | 145 to 146 °C | CC(=O)c1ccc(Nc2cccc(-c3ccccn3)c2)c(N)c1
58 | 185 to 187 °C | Cc1cccc(Nc2ncnc3cnc(NC4CCN(C(=O)N(C)C)CC4)nc23)c1
59 | 214 to 216 °C | C=Cc1ccc(NC(=O)N2CCN(c3ncnc4cc(OC)c(OC)cc34)CC2)cc1
60 | 299 to 300 °C | Clc1ccc2[nH]c(Cc3ccccc3)c(C3=NCCN3)c2c1
61 | 181 to 183 °C | CCCCc1nn(-c2cc(NC(=O)CC)ccc2C(F)(F)F)c(=O)n1Cc1ccc(-c2ccccc2S(=O)(=O)NC(=O)c2ccccc2Cl)cc1F
62 | 150 to 153 °C | O=C(N[C@@H](CSc1ccc(C(F)(F)F)cc1[N+](=O)[O-])C(=O)O)OCc1ccccc1
63 | 164 to 165 °C | COc1ccc(-c2csc(N(C(C)=O)c3cc4ccccc4cn3)n2)cc1OC
64 | 150 to 153 °C | FC(F)C(F)(F)Oc1cccc(Nc2nccc(-c3ccnc(Cl)c3)n2)c1
65 | 183 to 184 °C | N#Cc1cccc(CC(NC(=O)c2cc3cc(Cl)ccc3[nH]2)C(=O)N2CCSC2)c1 (centres undefined)
66 | 227 to 229 °C | CC(C)(O)Cn1c(CO)nc2c(N)nc3cc(-c4cccc(CO)c4)cnc3c21
67 | 144 °C | CCCC(=O)c1cnc2c(OC)nccc2c1Nc1ccccc1C
68 | 178 to 182 °C | O=C(O)c1cncc(-c2ccc(Cl)c(C(=O)NCC34CC5CC(CC(C5)C3)C4)c2)c1
69 | 248 °C | CC(C)(C)OC(=O)[C@H]1C[C@H](C(=O)O)[C@@H](c2ccccc2)N1C(=O)CNC(=O)Nc1ccc(Cl)cc1 (racemic)
